Source: US8003615B2, “Stable vitamin B6 derivative” (Daiichi Fine Chemical Co., Ltd., priority 2003, dated 2011)

Assays:
[1] = type: physicochemical; settings: 0.5% (w/v) aqueous solution, D65 fluorescent lamp 13,000 Lx
Protocol: A 0.5% (w/v) aqueous solution of pyridoxine 3-β-D-glucoside (pH 6.7) in a volume of 0.3 ml was enclosed in a 1-ml volume glass ampoule, and irradiated with a D65 fluorescent lamp (Toshiba) for 14 days. The irradiation was performed at room temperature with an illumination of 13,000 Lx. Samples before the irradiation and after 1 day, 7 days and 14 days of the irradiation were analyzed by HPLC to measure a pyridoxine 3-β-D-glucoside content. A solution of pyridoxine hydrochloride of the same concentration (adjusted to pH 6.7) was treated in the same manner, and the results were compared. The HPLC measurement conditions were as follows.
Column: Inertsil ODS-3 ([…], ([…], φ4.6×150 mm, GL Science Inc.)
Eluent acetonitrile:0.1% (v/v) trifluoroacetic acid, 5 mM sodium 1-hexanesulfonate=1:9
Column temperature: 40° C.
Aqueous solutions (0.5% (w/v)) of pyridoxine 3-β-D-glucoside hydrochloride, pyridoxal 3-β-D-glucoside, pyridoxamine 3-β-D-glucoside, pyridoxine 3-β-D-galactoside, and pyridoxine hydrochloride (adjusted to pH 6.3 to 7.2 with HCl or NaOH) were each sealed in a volume of 0.3 ml in a 1-ml volume glass ampoule, and light irradiation and HPLC quantification were performed in the same manner as in Test Example 1. […] Test Example 4 (thermal stability of pyridoxine 3-β-D-glucoside hydrochloride and various 3-glycosides) […]

[2] = Thermal stability of aqueous solution kept at 50° C., HPLC; type: physicochemical; settings: 0.5% (w/v) aqueous solution, 50° C. for 90 days
Protocol: A 0.5% (w/v) aqueous solution of pyridoxine 3-β-D-glucoside (pH 6.7) in a volume of 0.3 ml was sealed in a 1-ml volume glass ampoule, and kept at 50° C. under light shielding. The sample was warmed for 90 days, and analyzed during the warming by HPLC (analysis conditions were the same as those applied in Test Example 1) to measure a pyridoxine 3-β-D-glucoside content. A solution of pyridoxine hydrochloride of the same concentration (adjusted to pH 6.7) was treated in the same manner, and the results were compared.
Aqueous solutions (0.5% (w/v)) of pyridoxine 3-β-D-glucoside hydrochloride, pyridoxal 3-β-D-glucoside, pyridoxamine 3-β-D-glucoside, pyridoxine 3-β-D-galactoside, pyridoxine hydrochloride, pyridoxal hydrochloride, and pyridoxamine hydrochloride (adjusted to pH 6.3 to 7.2 with HCl or NaOH) were each sealed in a volume of 0.3 ml in a 1-ml volume glass ampoule, […] in the same manner as in Test Example 2.
0.5% (w/v) Aqueous solutions of pyridoxine 3,4′-cyclic sodium phosphate and pyridoxine hydrochloride (adjusted to pH 6.5 to 6.8) were each sealed in a volume of 0.3 ml in a 1-ml volume glass ampoule, and warming at 50° C. and HPLC analysis were performed in the same manner as in Test Example 2.

[3] = Light stability in a lotion; type: physicochemical
Protocol: Ceramide formulation (0.1 g), 1,3-butylene glycol (2.5 g), dipropylene glycol (2.5 g), and methylparaben (0.01 g) were warmed at 80° C. and stirred until the mixture became transparent. The mixture was cooled to 35° C., then added with 0.1 g of a vitamin B6 derivative (pyridoxine 3-β-D-glucoside, pyridoxine 3-β-D-glucoside hydrochloride, or pyridoxine 3,4-cyclic sodium phosphate: in Test Examples 11 to 16 mentioned below, the “vitamin B6 derivative” means one of these three kinds of substances) or 0.1 g of pyridoxine 3-sodium sulfate, 1.0 g of sorbitol-fermented polysaccharide and 90 ml of purified water with stirring, and the mixture were stirred until the added substances were dissolved. The solution was adjusted to pH 6.4 with 10% aqueous citric acid, and made into a volume of 100 ml with purified water to prepare a lotion. In this preparation, precipitates and the like were not observed. The prepared lotion in a volume of 6 ml was filled in a glass bottle, and exposed to light of a D65 fluorescent lamp at a total illumination of 0, 60,000, 180,000, or 300,000 lux·hr, and then the vitamin B6 derivative was quantified. The same sample was separately stored at 50° C., and after 0 day, 14 days, one month, and two months, the vitamin B6 derivative was quantified by the HPLC method described in Test Example 1.

[4] = Light stability in a dog food; type: physicochemical
Protocol: A vitamin B6 derivative (0.1 g) was added to wheat flour (10 g), and uniformly mixed. The mixture was further successively added with breast meat of chicken (40.0 g), soybean protein (30.0 g), glucose (5.0 g), citric acid (0.001 g), sodium chloride (1.0 g), copper sulfate (0.01 g), iron sulfate (0.01 g), sorbic acid (0.3 g), and propylene glycol (5.0 g), and uniformly mixed. The mixture was made 100 g with purified water, and uniformly mixed to prepare dog food.
The prepared dog food in an amount of 5 g was put into a petri dish, and exposed to light of a D65 fluorescent lamp at a total illumination of 0, 60,000, 180,000, or 300,000 lux·hr, and then the vitamin B6 derivative was quantified by the HPLC method in the same manner as in Test Example 11 mentioned above.

[5] = Test for change in formulation: powder mixed with calcium pantothenate; type: physicochemical; settings: 40° C. and 75% humidity, one month
Protocol: Calcium pantothenate (1 g) and a vitamin B6 derivative (1 g) was uniformly mixed in a mortar to prepare a sample in the form of a powder for stability test. The sample placed in an opened glass bottle was stored in an oven at 40° C. under 75% humidity. Appearance of the sample was examined by visual inspection after 0 day, 14 days, and one month, and the vitamin B6 derivative and calcium pantothenate were quantified by the HPLC method in the same manner as in Test Example 11 mentioned above, provided that the detection wavelength for calcium pantothenate was 210 nm.

[6] = Test for change in formulation: aqueous solution with calcium pantothenate; type: physicochemical; settings: aqueous solution 0.1 g + 0.1 g calcium pantothenate per 100 ml, 40° C., one month
Protocol: Calcium pantothenate (0.1 g) and a vitamin B6 derivative (0.1 g) were dissolved in purified water and made 100 ml to prepare a sample for stability test in the form of a solution. The sample filled in a sealed glass bottle was stored at 40° C. Appearance of the sample was examined by visual inspection after 0 day, 14 days, and one month, and the vitamin B6 derivative and calcium pantothenate were quantified by the HPLC method in the same manner as in Test Example 11 mentioned above, provided that the detection wavelength for calcium pantothenate was 210 nm.

Cc1ncc(CO)c(CO)c1O.Cl [pyridoxine hydrochloride]
coloring of the aqueous solution after the light irradiation [1]: colored in pale yellow | coloring of the aqueous solution after the warming [2]: colored in yellow | remained substance in lotion after irradiation ([3]; lotion pH 6.4, D65 fluorescent lamp, 180,000 lux·hr for 3 days): 42% | remained substance in lotion after irradiation ([3]; lotion pH 6.4, D65 fluorescent lamp, 300,000 lux·hr for 5 days): 30% | remained substance in dog food after irradiation ([4]; D65 fluorescent lamp, 180,000 lux·hr for 3 days): 90% | remained substance in dog food after irradiation ([4]; D65 fluorescent lamp, 300,000 lux·hr for 5 days): 85% | remained calcium pantothenate in the formulation with the substance ([5]; powder 1 g + 1 g calcium pantothenate): 81% | appearance of the formulation with calcium pantothenate ([5]; powder, visual inspection): the white appearance became brown, and blocking and deliquescence were observed | remained calcium pantothenate in the formulation with the substance [6]: 83%
